Common to all, as to format: functional, cell-based
For assay [1], the system named is MIA PaCa-2. The experiment in a line: Cytotoxicity against human MIAPaCa2 cells after 48 hrs by MTT assay. The note with it: MIA PaCa-2, 48 h. In general terms: Tetrazolium dyes change colour on reduction, which living cells bring about.
The test system of assay [2] is MCF7. The assay can be described thus: Cytotoxicity against human MCF7 cells after 48 hrs by MTT assay. The note with it: MCF7, 48 h.
The test system of assay [3] is LNCaP. The experiment in a line: Cytotoxicity against human LNCAP cells after 48 hrs by MTT assay.
Assay [4] deals with DU-145. The experiment in a line: Cytotoxicity against human DU145 cells after 48 hrs by MTT assay. The note with it: DU-145, 48 h.
The test system of assay [5] is PC-3. The experiment in a line: Cytotoxicity against human PC3 cells after 48 hrs by MTT assay. The note with it: PC-3, 48 h.
The test system of assay [6] is MDA-MB-231. The assay can be described thus: Cytotoxicity against human MDA-MB-231 cells after 48 hrs by MTT assay. The note with it: MDA-MB-231, 48 h.

For orientation: IC50 means the point on the concentration scale where inhibition reaches its midpoint. A high value points to lower potency. As to `COc1cc(-c2noc(C3CCNCC3)n2)ccc1OC1CCCC1`, the IC50 in assay [1] amounted to 13 µM; in assay [2], 29 µM; in assay [3] it was 42.2 µM; in assay [4], 30 µM; in assay [5], 11.7 µM; in assay [6], 28.5 µM.
With `CCCCOc1cc(-c2noc(C3CCN(C(=O)OC(C)(C)C)CC3)n2)ccc1OC`, the IC50 was found to be 105 µM in assay [1]; 91 µM in assay [2]; 91 µM in assay [3]; 102 µM in assay [4]; 130 µM in assay [5]; 88 µM in assay [6].
Regarding `COc1ccc(-c2nnc(C3CCNCC3)s2)cc1OC1CCCC1`, the IC50 stood at 10.2 µM in assay [1]; 17.6 µM in assay [2]; 19.2 µM in assay [3]; 19.6 µM in assay [4]; 12.9 µM in assay [5]; 9.2 µM in assay [6].
Take `COc1ccc(-c2nnc(C3CCNCC3)o2)cc1OC1CCCC1`: the IC50 in assay [1] was 331 µM; in assay [2], 129 µM; in assay [3] it was 308 µM; in assay [4], 146 µM; in assay [5], above 1000 µM; in assay [6], 38.3 µM.
Regarding `CCOC(=O)N1CCC(c2nc(-c3ccc(OC)c(OC4CCCC4)c3)no2)CC1`, the IC50 in assay [1] came out at 24 µM; in assay [2], 27 µM; in assay [3], 58.7 µM; in assay [4], 29.3 µM; in assay [5], 80 µM; in assay [6] it was 36.8 µM.
For the compound `CCCCOc1cc(-c2noc(C3CCNCC3)n2)ccc1OC`, the 50% inhibitory concentration (IC50) in assay [1] amounted to 18.5 µM; in assay [2], 15.7 µM; in assay [3], 32.5 µM; in assay [4], 17 µM; in assay [5], 35.8 µM; in assay [6], 23.8 µM.
On to `COc1cc(-c2noc(-c3cc(OC)c(OC)c(OC)c3)n2)cc(OC)c1OC`, for which the IC50 was above 1000 µM in assay [1]; above 1000 µM in assay [2]; 407 µM in assay [3]; 576 µM in assay [4]; 698 µM in assay [5]; 261 µM in assay [6].
Turning to `COc1ccc(-c2nc(-c3cc(OC)c(OC)c(OC)c3)no2)cc1OC`, the IC50 was above 1000 µM in assay [1]; above 1000 µM in assay [2]; above 1000 µM in assay [3]; above 1000 µM in assay [4]; above 1000 µM in assay [5]; 475 µM in assay [6].
Regarding `COc1ccc(-c2nc(-c3ccc(OC)c(OC4CCCC4)c3)no2)cc1OC`, the IC50 in assay [1] is 404 µM; in assay [2], above 1000 µM; in assay [3] it was 816 µM; in assay [4], 422 µM; in assay [5] it was 171 µM; in assay [6], 236 µM.
Take `COc1ccc(-c2nc(-c3cc(OC)c(OC)c(OC)c3)no2)cc1`: the IC50 is 43.5 µM in assay [1]; above 1000 µM in assay [2]; 327 µM in assay [3]; 100 µM in assay [4]; 214 µM in assay [5]; 768 µM in assay [6].
Consider `COc1ccc(-c2nc(-c3ccc(OC)c(OC4CCCC4)c3)no2)cc1`, for which the 50% inhibitory concentration (IC50) in assay [1] is 420 µM; in assay [2], above 1000 µM; in assay [3], 843 µM; in assay [4], 414 µM; in assay [5], 408 µM; in assay [6], 77.7 µM.
For `COc1cc(-c2noc(C3CCN(C(=O)OC(C)(C)C)CC3)n2)cc(OC)c1OC`, the IC50 in assay [1] was 106 µM; in assay [2], 43.6 µM; in assay [3], 48.2 µM; in assay [4], 48.4 µM; in assay [5] it was 56.9 µM; in assay [6], 13.6 µM.
For the compound `COc1ccc(-c2noc(C3CCN(C(=O)OC(C)(C)C)CC3)n2)cc1OC1CCCC1`, the IC50 in assay [1] worked out at 23.3 µM; in assay [2] it was 60.3 µM; in assay [3], 122 µM; in assay [4] it was 120 µM; in assay [5] it was 108 µM; in assay [6] it was 38.3 µM.
For `COc1cc(-c2noc(C3CCNCC3)n2)cc(OC)c1OC`, the IC50 is 80.1 µM in assay [1]; 324 µM in assay [2]; 120 µM in assay [3]; 112 µM in assay [4]; 176 µM in assay [5]; 123 µM in assay [6].
Take `COc1ccc(-c2noc(C3CCNCC3)n2)cc1OC`: the IC50 in assay [1] worked out at 147 µM; in assay [2], 27 µM; in assay [3] it was 38.8 µM; in assay [4], 108 µM; in assay [5] it was 315 µM; in assay [6], 122 µM.
Turning to `CCOc1cc(-c2noc(C3CCN(C(=O)OC(C)(C)C)CC3)n2)ccc1OC`, the IC50 came to 91.1 µM in assay [1]; 93.8 µM in assay [2]; 96.1 µM in assay [3]; 156 µM in assay [4]; 41 µM in assay [5]; 116 µM in assay [6].
For `COc1ccc(-c2noc(C(Cl)(Cl)Cl)n2)cc1OC1CCCC1`, the IC50 in assay [1] is 14.5 µM; in assay [2], 47.4 µM; in assay [3], 17.8 µM; in assay [4], 9.3 µM; in assay [5] it was 15 µM; in assay [6], 16.1 µM.
Regarding `COc1ccc(-c2noc(C3CCN(S(C)(=O)=O)CC3)n2)cc1OC1CCCC1`, the IC50 stood at 144 µM in assay [1]; 113 µM in assay [2]; 149 µM in assay [3]; 134 µM in assay [4]; 159 µM in assay [5]; 109 µM in assay [6].
On to `CCOc1cc(-c2noc(C3CCNCC3)n2)ccc1OC`, for which the IC50 was 112 µM in assay [1]; 173 µM in assay [2]; 154 µM in assay [3]; 167 µM in assay [4]; 166 µM in assay [5]; 184 µM in assay [6].
Take `COc1cc(-c2noc(C3CCN(C(=O)OC(C)(C)C)CC3)n2)ccc1OC1CCCC1`: the IC50 amounted to 21.5 µM in assay [1]; 38 µM in assay [2]; 106 µM in assay [3]; 98.6 µM in assay [4]; 315 µM in assay [5]; 41 µM in assay [6].
In the case of `COc1ccc(-c2noc(C3CCCCC3)n2)cc1OC1CCCC1`, the IC50 in assay [1] was determined as 64.5 µM; in assay [2], 57.3 µM; in assay [3], 92.6 µM; in assay [4] it was 108 µM; in assay [5], 80.3 µM; in assay [6] it was 138 µM.
As for `COc1ccc(-c2noc(C3CCCC3)n2)cc1OC1CCCC1`, the IC50 was found to be 99.2 µM in assay [1]; 62.3 µM in assay [2]; 138 µM in assay [3]; 106 µM in assay [4]; 194 µM in assay [5]; 87.5 µM in assay [6].
Take `COc1ccc(-c2noc(C3CCN(C(=O)OC(C)(C)C)CC3)n2)cc1OC`: the concentration for half-maximal inhibition (IC50) in assay [1] worked out at 32.5 µM; in assay [2], 52.2 µM; in assay [3] it was 85.6 µM; in assay [4] it was 158 µM; in assay [5], 108 µM; in assay [6] it was 129 µM.

These data come from ChEMBL document CHEMBL1795335, “Synthesis of novel 1,2,4-oxadiazoles and analogues as potential anticancer agents” (Eur J Med Chem, 2011).
